Values of other authors in patent US20250065012A1, “DIRECTIONAL AND TEMPORAL RELEASE OF DRUGS FROM MEDICAL DEVICES” (NANO THERAPEUTICS PRIVATE LIMITED, priority 2022, published 2025).
Structures can show the parent of a compound that is named as a salt.

Assays:
[1] = injected intravenously
platelet aggregation = conditions: after systemic administration

## CCCCS(=O)(=O)N[C@@H](Cc1ccc(OCCCCC2CCNCC2)cc1)C(=O)O [Tirofiban HCl]
[1]
  increase in bleeding time: 3-4 fold
  increase in clotting time: 3-4 fold

## CCCCS(=O)(=O)N[C@@H](Cc1ccc(OCCCCC2CCNCC2)cc1)C(=O)O [Tirofiban]
Platelet aggregation
  platelet aggregation inhibition: up to 96%
